Data reported in patent US8637568B2, “Serotonin reuptake inhibitors” (Theravance, Inc., priority 2010, dated 2014).

Experiments:
[1] = molecular target: T1, human recombinant serotonin transporter (hSERT) (Homo sapiens, UniProt P31645); assay: hSERT binding assay (3H-citalopram membrane radioligand binding); settings: inhibition of 3H-citalopram binding to membranes from HEK-293 cells expressing hSERT; Cheng-Prusoff; read-out: SERT pKi (converted)
T1 construct: expressed in transfected cells; host or cells: HEK-293 (stably transfected), membrane preparation
Description: Protein concentration of the membrane suspension was determined using a Bio-Rad Bradford Protein Assay kit. Membranes were snap frozen and stored at −80° C.
Following a 60 minute incubation at 22° C. […] IC50 values were generated from concentration response curves using the Sigmoidal Dose Response (variable slope) algorithm in Prism GraphPad.

[2] = molecular target: T2, human recombinant SERT (HEK293-hSERT cells) (Homo sapiens, UniProt P31645); assay: hSERT neurotransmitter uptake assay; assay type: cell-based; settings: serotonin reuptake inhibition in HEK293-hSERT cells; read-out: SERT pIC50 (converted)
T2 construct: expressed in transfected cells; host or cells: HEK293 (stably transfected), whole cells
Description: HEK293 cells stably-transfected with human recombinant SERT (HEK293-hSERT) were grown in Dulbecco's Modified Eagle's Medium supplemented with 10% dialyzed fetal bovine serum, 100 µg/ml penicillin, 100 µg/ml streptomycin, 2 mM L-glutamine, and 250 μg/ml of the aminoglycoside antibiotic G418. Cells were incubated in a 5% CO2, humidified incubator at 37° C.
In pre-incubation studies, test compound was added to cells for 30 minutes at 37° C. prior to the addition of fluorescent substrate. […] For real-time measurements, compounds were either preincubated (as above) or mixed with substrate prior to addition, and kinetic measurements, relative fluorescence units (RFU integrated over 0.5 ms),were made using a cycle time of 1 min.

T1 sequence (P31645 whole entry): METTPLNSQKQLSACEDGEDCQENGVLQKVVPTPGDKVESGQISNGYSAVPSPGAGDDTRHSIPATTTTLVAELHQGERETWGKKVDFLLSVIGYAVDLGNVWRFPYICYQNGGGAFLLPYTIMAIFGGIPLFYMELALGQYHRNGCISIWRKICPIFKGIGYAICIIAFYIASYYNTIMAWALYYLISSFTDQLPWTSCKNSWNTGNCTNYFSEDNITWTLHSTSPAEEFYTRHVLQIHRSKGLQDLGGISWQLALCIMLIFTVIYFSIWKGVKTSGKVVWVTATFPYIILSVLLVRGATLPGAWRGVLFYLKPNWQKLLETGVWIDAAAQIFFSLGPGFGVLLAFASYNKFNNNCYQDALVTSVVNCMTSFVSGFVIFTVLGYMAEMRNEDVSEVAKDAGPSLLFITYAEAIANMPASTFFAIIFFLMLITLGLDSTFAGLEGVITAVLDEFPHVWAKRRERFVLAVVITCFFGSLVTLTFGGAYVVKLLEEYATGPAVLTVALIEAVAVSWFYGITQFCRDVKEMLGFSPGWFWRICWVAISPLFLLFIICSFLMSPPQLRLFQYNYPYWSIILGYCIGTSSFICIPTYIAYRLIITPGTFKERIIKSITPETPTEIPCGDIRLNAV
T2 sequence (P31645 whole entry): as above

Compound	Ki [1]	IC50 [2]
CS(=O)(=O)NC[C@@H](Oc1ccc(C(F)(F)F)cc1)[C@H]1CCNC1 [Example 3-1, N-[(S)-2-(S)-Pyrrolidin-3-yl-2-(4-trifluoromethylphenoxy)ethyl]-methanesulfonamide]	≤ 10 nM	≤ 10 nM
CC(=O)N(C[C@@H](Oc1ccc(C(F)(F)F)cc1)[C@H]1CCNC1)S(C)(=O)=O [Example 3-4, N-Acetyl-N-[(S)-2-(S)-pyrrolidin-3-yl-2-(4-trifluoromethylphenoxy)ethyl]-methanesulfonamide]	≤ 10 nM	≤ 10 nM
O=C(O)c1ccc(S(=O)(=O)NC[C@@H](Oc2ccc(C(F)(F)F)cc2)[C@H]2CCNC2)cc1 [Example 3-21, 4-[(S)-2-(S)-Pyrrolidin-3-yl-2-(4-trifluoromethylphenoxy)ethylsulfamoyl]-benzoic acid]	≤ 100 nM	≤ 100 nM
CN(C)S(=O)(=O)C[C@@H](Oc1ccc(C(F)(F)F)cc1)[C@H]1CCNC1 [Example 7-1, (S)-2-(S)-Pyrrolidin-3-yl-2-(4-trifluoromethylphenoxy)ethanesulfonic acid dimethylamide]	–	≤ 10 nM
